For one series, the system named is Toledo cells. The series is described as follows: Cell proliferation assay (MTS), Toledo cells. In kind it is cell-based. To be noted: Homo sapiens, 72 h. Put shortly: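 Toledo cells (RPMI-1640, 10% FBS) seeded at 30000 cells/well, rested 4 h, then exposed 72 h at 37 °C, 5% CO2 to compound at nine final concentrations, 1.5–10000 nM. Viability by MTS (2 h), absorbance at 490 nm. IC50 from the concentration-response.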

In another series the test system is RS4;11-BCL-2 G101V cells. The series is described as follows: Cell proliferation assay (MTS), RS4;11-BCL-2 G101V engineered cells. The class given is cell-based. To be noted: Homo sapiens, 120 h, read-out: RS4, 11 BCL2-G101V IC50. In short, it runs like this: (§1)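 RS4;11 cells stably overexpressing mutant BCL-2 were seeded and pre-incubated 4 h (G101V, F104L) or 24 h (D103E, D103Y), then exposed to compound at 1.5–10000 nM for 120 h (G101V, F104L) or 72 h (D103E, D103Y) at 37 °C. Viability was read by MTS absorbance at 490 nm after 2 h; IC50 fitted.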

The test system of the next series is RS4;11-BCL-2 D103E cells. The series is described as follows: Cell proliferation assay (MTS), RS4;11-BCL-2 D103E engineered cells. In kind it is cell-based. The note with it: Homo sapiens, 72 h, read-out: RS4, 11 BCL2-D103E IC50. Put shortly:
as §1

A short description of series [1]: Pharmacokinetics assay in rats. In kind it is in vivo. To be noted: male Sprague-Dawley rats, po, 5 mg/kg, plasma; for AUC(0-t) / half-life / Cmax: rat; for Cmax: read-out: Cmax/C0. Here is the method: The purpose of this study was to determine the pharmacokinetics of Examples in male Sprague-Dawley rats (Supplied by Beijing Vital River Laboratory Animal Technology Co., Ltd.) following a single intravenous bolus injection at 1 mg/kg and oral gavage (PO) administration at 5 mg/kg.
Animals in Group 1 were administered with Examples by single intravenous bolus injection at 1 mg/kg, which was formulated in 10% DMSO (Sigma, Batch #LPCOS181): 60% PEG400 (Sigma, Batch #MKCH6281): 30% water, pH 5-6 at 1 mg/mL as a solution. Animals in Group 2 were administered with Examples by single oral gavage (PO) administration at 5 mg/kg, which was formulated in 10% DMSO (Sigma, Batch #BCCD6641): 60% PEG400 (Sigma, Batch #MKCL4921): 30% water at 1 mg/mL as a solution. Blood samples were collected at 0.083, 0.25, 0.5, 1, 2, 4, 8, 12 and 24 hours post-dose. Concentrations of Examples in plasma were determined by LC/MS/MS (LC: Waters UPLC; MS: Triple Quad 6500 plus).

A further series relates to RS4;11-BCL-2 F104L cells. The series is described as follows: Cell proliferation assay (MTS), RS4;11-BCL-2 F104L engineered cells. In kind it is cell-based. To be noted: Homo sapiens, 120 h, read-out: RS4, 11 BCL2-F104L IC50. In short, it runs like this:
as §1

These results are taken from patent publication US20250122191A1, “COMPOUNDS AS BCL-2 INHIBITORS” (Fochon Biosciences, Ltd, priority 2021, published 2025).

Broadly, the IC50 is the concentration that gives 50% inhibition. For orientation: AUC(0-t) means the area under the concentration-time curve up to a stated or last time point. The half-life is the time needed for the level to fall by half in the phase considered. Lower therefore signals rapid decline. `CCOc1nc2[nH]cc(F)c2cc1Oc1cc(N2CCC3(CC2)CC(N2CCN(Cc4ccc(OC)cc4)C[C@H]2c2ccccc2C(C)C)C3)ccc1C(=O)NS(=O)(=O)c1cnc(NC[C@H]2CC[C@](C)(O)CC2)c([N+](=O)[O-])c1` [Example 2, 2-((6-ethoxy-3-fluoro-1H-pyrrolo[2,3-b]pyridin-5-yl)oxy)-N-((6-((((1r,4r)-4-hydroxy-4-methylcyclohexyl)methyl)amino)-5-nitropyridin-3-yl)sulfonyl)-4-(2-((R)-2-(2-isopropylphenyl)-4-(4-methoxybenzyl)piperazin-1-yl)-7-azaspiro[3.5]nonan-7-yl)benzamide]: the IC50 with Toledo cells amounted to 1 nM; with RS4;11-BCL-2 G101V cells it was 1 nM; in the series with RS4;11-BCL-2 D103E cells it was 3 nM. This molecule also had an AUC(0-t) in series [1] of 1.92 µg·h/mL. The molecule further gave a half-life in series [1] of 7.62 h. The Cmax in series [1] turned out to be 0.166 µg/mL.
Turning to `COc1nc2[nH]cc(F)c2cc1Oc1cc(N2CCC3(CC2)CC(N2CCN(Cc4ccc(F)c(F)c4)C[C@H]2c2ccccc2C(C)C)C3)ccc1C(=O)NS(=O)(=O)c1cnc(NC[C@H]2CC[C@](C)(O)CC2)c([N+](=O)[O-])c1` [Example 3, 4-(2-((R)-4-(3,4-difluorobenzyl)-2-(2-isopropylphenyl)piperazin-1-yl)-7-azaspiro[3.5]nonan-7-yl)-2-((3-fluoro-6-methoxy-1H-pyrrolo[2,3-b]pyridin-5-yl)oxy)-N-((6-((((1r,4r)-4-hydroxy-4-methylcyclohexyl)methyl)amino)-5-nitropyridin-3-yl)sulfonyl)benzamide], in the series on Toledo cells, the IC50 amounted to 1 nM. The IC50 in the series on RS4;11-BCL-2 G101V cells is 1 nM. For the same molecule, the IC50 in the series on RS4;11-BCL-2 F104L cells is 1 nM. Further, in series [1], the AUC(0-t) turned out to be 4.65 µg·h/mL, the half-life was 9.21 h and the Cmax came out at 0.382 µg/mL.
`CCOc1nc2[nH]cc(F)c2cc1Oc1cc(N2CCC3(CC2)CC(N2CCN(Cc4ccc(F)c(F)c4)C[C@H]2c2ccccc2C(C)C)C3)ccc1C(=O)NS(=O)(=O)c1cnc(NC[C@H]2CC[C@](C)(O)CC2)c([N+](=O)[O-])c1` [Example 4, 4-(2-((R)-4-(3,4-difluorobenzyl)-2-(2-isopropylphenyl)piperazin-1-yl)-7-azaspiro[3.5]nonan-7-yl)-2-((6-ethoxy-3-fluoro-1H-pyrrolo[2,3-b]pyridin-5-yl)oxy)-N-((6-((((1r,4r)-4-hydroxy-4-methylcyclohexyl)methyl)amino)-5-nitropyridin-3-yl)sulfonyl)benzamide]: in the series on Toledo cells, it took 1 nM to reach half-maximal inhibition (IC50). Also, the IC50 in the series on RS4;11-BCL-2 G101V cells stood at 1 nM. For the same molecule, the IC50 in the series with RS4;11-BCL-2 F104L cells is 1 nM. In series [1], the AUC(0-t) is 1.74 µg·h/mL, the half-life is 9.57 h and the Cmax came out at 0.176 µg/mL.
In series [1], `CC(C)c1ccccc1[C@@H]1CN(C)CCN1C1CC2(CCN(c3ccc(C(=O)NS(=O)(=O)c4cnc(NCC5CCC(C)(O)CC5)c([N+](=O)[O-])c4)c(Oc4cnc5[nH]ccc5c4)c3)CC2)C1` (stereo partly drawn) [Reference Compound 1, (R)-2-((1H-pyrrolo[2,3-b]pyridin-5-yl)oxy)-N-((6-(((4-hydroxy-4-methylcyclohexyl)methyl)amino)-S-nitropyridin-3-yl)sulfonyl)-4-(2-(2-(2-isopropylphenyl)-4-methylpiperazin-1-yl)-7-azaspiro[3.5]nonan-7-yl)benzamide, reference compound] registered an AUClast of 0.128 µg·h/mL, a Cmax/C0 of 0.0499 µg/mL and a T1/2 of 1.16 h.
